According to paper PMC4965473 (Frontiers in Physiology, 2016):
Entries after “also recorded” stand apart in the source; their conditions may differ. Counter-ions that a name gives are not always drawn.

What was measured:
[1] = system: G34A mutant of M2TMD21−49; set-up: species or system influenza A; conditions: pH 5.5
[2] = molecular target: T1, M2TMD21−49 (Influenza A virus, UniProt P0DOF5, L46C)
[3] = system: wt M2TMD21−49; set-up: species or system influenza A; conditions: pH 5.5
[4] = system: wt M2TMD21−49; set-up: species or system influenza A; conditions: pH 5.5; remark: listed apart in the source
[5] = molecular target: T1, M2TMD21−49; format: binding; conditions: pH 5.5

In the case of NC12CC3CC(CC(C3)C1)C2 [amantadine, amantadine hydrochloride], the “effect of amantadine on C-terminal conformation / inter-spin distances of G34A mutant” value [1] is reported as “marginal if any effect on M2TMD C-terminal conformation; also recorded: Inter-spin distances do not change upon the addition of amantadine”, the “oligomeric species seen in EM micrographs” value [2] is reported as “monomers, dimers, and tetramers” and the “maximum increase in DEER modulation depth upon binding of amantadine” value [3] is reported as 23–30%. For the same compound, the “narrowing of Gaussian widths (σ) in the presence of amantadine” value [4] was “ca. 2 Å”, the “r1, Gaussian mean (proximal distance)” value [4] was 20.8 Å and the “r2, Gaussian mean (lateral distance)” value [4] was 29 Å. For the same compound, the “shortening of inter-spin distances upon binding of amantadine” value [4] was 5–8 Å and the “reduction of k4d in the presence of amantadine” value [5] was 10 -fold.
